ChEMBL document CHEMBL1154412, “In vitro activity of telavancin against gram-positive clinical isolates recently obtained in Europe” (Antimicrob Agents Chemother, 2007)
Converted amounts (≈) assume the structure as drawn.

What was measured:
Type in all cases: functional
[1] = tested on: Streptococcus pneumoniae; test: Antibacterial activity against penicillin-resistant Streptococcus pneumoniae after 20 to 24 hrs by broth microdilution method
[2] = tested on: Staphylococcus; test: Antimicrobial activity against methicillin-susceptible coagulase-negative Staphylococcus after 20 to 24 hrs by broth microdilution method
[3] = tested on: Enterococcus faecium; test: Antibacterial activity against vancomycin-resistant Enterococcus faecium after 20 to 24 hrs by broth microdilution method
[4] = tested on: Streptococcus sp. 'group A'; test: Antimicrobial activity against Streptococcus group A after 20 to 24 hrs by broth microdilution method
[5] = tested on: Enterococcus faecalis; test: Antimicrobial activity against vancomycin-resistant Enterococcus faecalis after 20 to 24 hrs by broth microdilution method
[6] = tested on: Enterococcus faecalis; test: Antimicrobial activity against vancomycin-susceptible Enterococcus faecalis after 20 to 24 hrs by broth microdilution method
[7] = tested on: Enterococcus faecium; test: Antibacterial activity against vancomycin-susceptible Enterococcus faecium after 20 to 24 hrs by broth microdilution method
[8] = tested on: Streptococcus sp. 'group B'; test: Antimicrobial activity against Streptococcus group B after 20 to 24 hrs by broth microdilution method
[9] = tested on: Streptococcus viridans; test: Antimicrobial activity against Streptococcus viridans after 20 to 24 hrs by broth microdilution method
[10] = tested on: Staphylococcus; test: Antimicrobial activity against methicillin-resistant coagulase-negative Staphylococcus after 20 to 24 hrs by broth microdilution method
[11] = tested on: Staphylococcus aureus; test: Antimicrobial activity against methicillin-resistant Staphylococcus aureus after 20 to 24 hrs by broth microdilution method
[12] = tested on: Streptococcus pneumoniae; test: Antibacterial activity against penicillin-intermediate Streptococcus pneumoniae after 20 to 24 hrs by broth microdilution method
[13] = tested on: Staphylococcus aureus; test: Antimicrobial activity against methicillin-susceptible Staphylococcus aureus after 20 to 24 hrs by broth microdilution method
[14] = tested on: Streptococcus pneumoniae; test: Antibacterial activity against penicillin-susceptible Streptococcus pneumoniae after 20 to 24 hrs by broth microdilution method

| SMILES | MIC50 [1] | MIC90 [1] | MIC50 [3] | MIC50 [4] | MIC90 [4] | MIC50 [5] | MIC50 [6] | MIC90 [6] | MIC50 [8] | MIC90 [8] | MIC50 [9] | MIC90 [9] | MIC90 [10] | MIC90 [11] | MIC50 [12] | MIC90 [12] | MIC50 [13] | MIC90 [13] | MIC50 [14] | MIC90 [14] | other results |
| --- | --- | --- | --- | --- | --- | --- | --- | --- | --- | --- | --- | --- | --- | --- | --- | --- | --- | --- | --- | --- | --- |
| CCCCCCCCCC(=O)N[C@@H](Cc1c[nH]c2ccccc12)C(=O)N[C@H](CC(N)=O)C(=O)N[C@@H](CC(=O)O)C(=O)N[C@@H]1C(=O)NCC(=O)N[C@@H](CCCN)C(=O)N[C@@H](CC(=O)O)C(=O)N[C@H](C)C(=O)N[C@@H](CC(=O)O)C(=O)NCC(=O)N[C@H](CO)C(=O)N[C@@H]([C@H](C)CC(=O)O)C(=O)N[C@@H](CC(=O)c2ccccc2N)C(=O)O[C@@H]1C | 0.12 µg/mL (≈ 0.074 µM) | 0.12 µg/mL (≈ 0.074 µM) | 2 µg/mL (≈ 1.23 µM) | 0.06 µg/mL (≈ 0.037 µM) | 0.06 µg/mL (≈ 0.037 µM) | 0.5 µg/mL (≈ 0.309 µM) | 1 µg/mL (≈ 0.617 µM) | 2 µg/mL (≈ 1.23 µM) | 0.25 µg/mL (≈ 0.154 µM) | 0.25 µg/mL (≈ 0.154 µM) | 0.5 µg/mL (≈ 0.309 µM) | 1 µg/mL (≈ 0.617 µM) | 0.5 µg/mL (≈ 0.309 µM) | 0.5 µg/mL (≈ 0.309 µM) | 0.12 µg/mL (≈ 0.074 µM) | 0.25 µg/mL (≈ 0.154 µM) | 0.25 µg/mL (≈ 0.154 µM) | 0.5 µg/mL (≈ 0.309 µM) | 0.12 µg/mL (≈ 0.074 µM) | 0.25 µg/mL (≈ 0.154 µM) | MIC50 [2]: 0.5 µg/mL (≈ 0.309 µM); MIC90 [2]: 1 µg/mL (≈ 0.617 µM); MIC90 [3]: 2 µg/mL (≈ 1.23 µM); MIC [5]: 0.5 µg/mL (≈ 0.309 µM); MIC90 [5]: 2 µg/mL (≈ 1.23 µM); MIC50 [7]: 2 µg/mL (≈ 1.23 µM); MIC90 [7]: 4 µg/mL (≈ 2.47 µM); MIC50 [10]: 0.5 µg/mL (≈ 0.309 µM); MIC50 [11]: 0.5 µg/mL (≈ 0.309 µM) |
| CC1(C)S[C@@H]2[C@H](NC(=O)[C@H](N)c3ccccc3)C(=O)N2[C@H]1C(=O)O [AMPICILLIN] | – | – | 128 µg/mL (≈ 366 µM) | – | – | 1 µg/mL (≈ 2.86 µM) | 1 µg/mL (≈ 2.86 µM) | 2 µg/mL (≈ 5.72 µM) | – | – | – | – | – | – | – | – | – | – | – | – | MIC90 [3]: 128 µg/mL (≈ 366 µM); MIC [5]: 1 µg/mL (≈ 2.86 µM); MIC90 [5]: 4 µg/mL (≈ 11.4 µM); MIC50 [7]: 64 µg/mL (≈ 183 µM); MIC90 [7]: 128 µg/mL (≈ 366 µM) |
| CO/N=C(\C(=O)N[C@@H]1C(=O)N2C(C(=O)O)=C(CSc3nc(=O)c(O)nn3C)CS[C@H]12)c1csc(N)n1 [CEFTRIAXONE] | 1 µg/mL (≈ 1.8 µM) | 2 µg/mL (≈ 3.61 µM) | – | 0.03 µg/mL (≈ 0.0541 µM) | 0.03 µg/mL (≈ 0.0541 µM) | – | – | – | 0.06 µg/mL (≈ 0.108 µM) | 0.06 µg/mL (≈ 0.108 µM) | 0.12 µg/mL (≈ 0.216 µM) | 2 µg/mL (≈ 3.61 µM) | – | – | 0.12 µg/mL (≈ 0.216 µM) | 1 µg/mL (≈ 1.8 µM) | – | – | 0.03 µg/mL (≈ 0.0541 µM) | 0.03 µg/mL (≈ 0.0541 µM) | – |
| CO/N=C(\C(=O)N[C@@H]1C(=O)N2C(C(=O)O)=C(COC(N)=O)CS[C@H]12)c1ccco1 [CEFUROXIME] | > 4 µg/mL | > 4 µg/mL | – | ≤ 0.12 µg/mL | ≤ 0.12 µg/mL | – | – | – | ≤ 0.12 µg/mL | ≤ 0.12 µg/mL | ≤ 0.12 µg/mL | 2 µg/mL (≈ 4.71 µM) | – | – | 0.5 µg/mL (≈ 1.18 µM) | 4 µg/mL (≈ 9.43 µM) | – | – | ≤ 0.12 µg/mL | ≤ 0.12 µg/mL | MIC [1]: ≥ 4 µg/mL; MIC [4]: ≤ 0.12 µg/mL; MIC [8]: ≤ 0.12 µg/mL; MIC [9]: ≤ 0.12 µg/mL; MIC [14]: ≤ 0.12 µg/mL |
| O=C(O)c1cn(C2CC2)c2cc(N3CCNCC3)c(F)cc2c1=O [CIPROFLOXACIN] | – | – | 32 µg/mL (≈ 96.6 µM) | – | – | 1 µg/mL (≈ 3.02 µM) | 1 µg/mL (≈ 3.02 µM) | > 32 µg/mL | – | – | – | – | > 8 µg/mL | > 8 µg/mL | – | – | 0.25 µg/mL (≈ 0.754 µM) | 1 µg/mL (≈ 3.02 µM) | – | – | MIC50 [10]: 2 µg/mL (≈ 6.04 µM); MIC50 [11]: > 8 µg/mL |
| CCC[C@@H]1C[C@@H](C(=O)N[C@@H]([C@H]2O[C@H](SC)[C@H](O)[C@@H](O)[C@H]2O)[C@H](C)Cl)N(C)C1 [CLINDAMYCIN] | > 0.25 µg/mL | – | – | ≤ 0.03 µg/mL | 0.06 µg/mL (≈ 0.141 µM) | – | – | – | 0.06 µg/mL (≈ 0.141 µM) | 0.06 µg/mL (≈ 0.141 µM) | ≤ 0.03 µg/mL | > 0.25 µg/mL | > 4 µg/mL | > 4 µg/mL | 0.06 µg/mL (≈ 0.141 µM) | > 0.25 µg/mL | ≤ 0.5 µg/mL | ≤ 0.5 µg/mL | 0.06 µg/mL (≈ 0.141 µM) | 0.06 µg/mL (≈ 0.141 µM) | MIC [2]: ≤ 0.5 µg/mL; MIC50 [2]: ≤ 0.5 µg/mL; MIC90 [2]: ≤ 0.5 µg/mL; MIC [4]: ≤ 0.03 µg/mL; MIC [9]: ≤ 0.03 µg/mL; MIC [13]: ≤ 0.5 µg/mL |
